One test relates to HBCx-34 tumor. As to the kind of experiment: Patient-derived xenograft (PDX) study with HBCx-34. As to conditions: HBCx-34 PDX. In kind it is in vivo, Athymic Nude-Foxn1^nu mice. The procedure: Female Athymic Nude-Foxn1^nu mice with an established growing HBCx-34 tumor between 108 and 288 mm^3 were randomized into 4 treatment groups of 10 mice each, according to the groups listed in Table 7A, tumor-bearing mice receive estrogen diluted in drinking water (β-estradiol, 8.5 mg/l), from the date of tumor implant to the end of the study. In Table 7A, the abbreviation “p.o.” refers to oral administration, the abbreviation “QD” refers to administration once a day, and the abbreviation “BID” refers to administration twice a day.
Tumors were measured and mice were weighed twice per week during the experimental period. The tumor volume (mm^3) was estimated using the formula: tumor volume (TV)=a×b2/2, where “a” and “b” were the long and the short diameter of a tumor, respectively. The TVs were used to calculate tumor growth inhibition (TGI, an indicator of antitumor activity) using the formula TGI %: (1−{T/T0/Ct/C0}/1−{C0/Ct})×100 where Tt=median tumor volume of treated at time t, T0=median tumor volume of treated at time 0, Ct=median tumor volume of control at time t and C0=median tumor volume of control at time 0. […] Tumor regression represents tumor volume less than the initial tumor volume on DO.
Female Athymic Nude-Foxn1^nu mice with an established growing HBCx-34 tumor between 108 and 288 mm^3 were randomized into 2 treatment groups of 8 mice each, according to the groups listed in Table 8A, tumor-bearing mice receive estrogen diluted in drinking water (β-estradiol, 8.5 mg/l), from the date of tumor implant to the end of the study. In Table 8A, the abbreviation “p.o.” refers to oral administration, the abbreviation “QD” refers to administration once a day.
Tumors were measured and mice were weighed twice per week during the experimental period. The tumor volume (mm^3) was estimated using the formula: tumor volume (TV)=a×b2/2, where “a” and “b” were the long and the short diameter of a tumor, respectively. The TVs were used to calculate tumor growth inhibition (TGI, an indicator of antitumor activity) using the formula TGI %: (1−{T/T0/Ct/C0}/1−{C0/Ct})×100 where Tt=median tumor volume of treated at time t, T0=median tumor volume of treated at time 0, Ct=median tumor volume of control at time t and C0=median tumor volume of control at time 0. […] Tumor regression represents tumor volume less than the initial tumor volume at DO.

The test system of the next test is HBCx-22 tumor. As to the kind of experiment: Patient-derived xenograft (PDX) study with HBCx-22. In kind it is in vivo, Athymic Nude-Foxn1^nu mice. As to conditions: HBCx-22 PDX; for Regressions (%) / TGI (%) D42: Day 42. The procedure: Female Athymic Nude-Foxn1^nu mice with an established growing HBCx-22 tumor between 108 and 288 mm^3 were randomized into 4 treatment groups of 10 mice each, according to the groups listed in Table 5A, tumor-bearing mice receive estrogen diluted in drinking water (β-estradiol, 8.5 mg/l), from the date of tumor implant to the end of the study. In Table 5A, the abbreviation “p.o.” refers to oral administration, the abbreviation “QD” refers to administration once a day, and the abbreviation “BID” refers to administration twice a day.
Tumors were measured and mice were weighed twice per week during the experimental period. The tumor volume (mm^3) was estimated using the formula: tumor volume (TV)=a×b2/2, where “a” and “b” were the long and the short diameter of a tumor, respectively. The TVs were used to calculate tumor growth inhibition (TGI, an indicator of antitumor activity) using the formula TGI %: (1−{T/T0/Ct/C0}/1−{C0/Ct})×100 where Tt=median tumor volume of treated at time t, T0=median tumor volume of treated at time 0, Ct=median tumor volume of control at time t and C0=median tumor volume of control at time 0. […] Tumor regression represents tumor volume less than the initial tumor volume on D0.
Female Athymic Nude-Foxn1^nu mice with an established growing HBCx-22 tumor between 108 and 288 mm^3 were randomized into 5 treatment groups of 8 mice each, according to the groups listed in Table 6A, tumor-bearing mice receive estrogen diluted in drinking water (β-estradiol, 8.5 mg/l), from the date of tumor implant to the end of the study. In Table 6A, the abbreviation “p.o.” refers to oral administration, the abbreviation “QD” refers to administration once a day, and the abbreviation “BID” refers to administration twice a day.
Tumors were measured and mice were weighed twice per week during the experimental period. The tumor volume (mm^3) was estimated using the formula: tumor volume (TV)=a×b2/2, where “a” and “b” were the long and the short diameter of a tumor, respectively. The TVs were used to calculate tumor growth inhibition (TGI, an indicator of antitumor activity) using the formula TGI %: (1−{T/T0/Ct/C0}/1−{C0/Ct})×100 where Tt=median tumor volume of treated at time t, T0=median tumor volume of treated at time 0, Ct=median tumor volume of control at time t and C0=median tumor volume of control at time 0. […] Robust and statistically significant tumor growth inhibition was observed starting at a dose of 30 mpk with 4/8 as shown in Table 6B. Tumor regression represents tumor volume less than the initial tumor volume at DO.
For orientation: Xenograft models place foreign cells or tissue in a host animal.

Setting [1] is: Compound A study, 30 mg/kg QD p.o.
[2] abbreviates: Compound A study, 100 mg/kg QD p.o.
Setting [3] is: 100 mg/kg twice daily (200 mg/kg/day).

As to `C[C@H]1CN(c2cc(S(=O)(=O)NC3(C)CC3)cc3c2cnn3-c2nnc(C(F)F)s2)C[C@H](C)N1` [Compound A, 1-(5-(difluoromethyl)-1,3,4-thiadiazol-2-yl)-4-((3S,5S)-3,5-dimethylpiperazin-1-yl)-N-(1-methylcyclopropyl)-1H-indazole-6-sulfonamide], the “Regressions (%)” value is given as 100% in the test with HBCx-34 tumor (100 mg/kg QD p.o., Day 45); 0% with HBCx-22 tumor (3 mg/kg QD p.o.); 0% with HBCx-22 tumor (10 mg/kg QD p.o.); 50% with HBCx-22 tumor (setting [1]); 62% with HBCx-22 tumor (setting [2]). For the same compound, the “TGI (%) D45” value with HBCx-34 tumor (100 mg/kg QD p.o., Day 45) amounted to 110%. For the same compound, the “partial regression (mice)” value in the test on HBCx-34 tumor (Compound A study, 100 mg/kg) is “all mice achieving partial regression”. Besides, the “TGI (%) D42” value was determined as 0.1% in the test with HBCx-22 tumor (3 mg/kg QD p.o.), 31.8% in the test on HBCx-22 tumor (10 mg/kg QD p.o.), 83.4% in the test on HBCx-22 tumor (setting [1]) and 108.5% with HBCx-22 tumor (setting [2]). Besides, the “tumor regression (mice)” value in the test with HBCx-22 tumor (Compound A study, 30 mpk) was 4/8.
With `CC(C)C(=O)N1CCN(c2cc(S(=O)(=O)NC3(C#N)CC3)cc3c2cnn3-c2nnc(C(F)F)s2)C[C@H]1C` [Compound B], the “Regressions (%)” value is on record as 10% in the test on HBCx-34 tumor (30 mg/kg QD p.o., Day 35); 80% with HBCx-34 tumor (100 mg/kg BID p.o., Day 35); 80% in the test on HBCx-34 tumor (100 mg/kg QD p.o., Day 35); 10% in the test on HBCx-22 tumor (30 mg/kg QD p.o.); 60% in the test with HBCx-22 tumor (100 mg/kg BID p.o.); 30% in the test on HBCx-22 tumor (100 mg/kg QD p.o.). Moreover, the “TGI (%) D35” value in the test on HBCx-34 tumor (30 mg/kg QD p.o., Day 35) is given as 77%; in the test on HBCx-34 tumor (100 mg/kg BID p.o. (200 mg/kg/day), Day 35), 106%; with HBCx-34 tumor (100 mg/kg QD p.o., Day 35) it was 103%. Further, the “partial regression (mice)” value in the test with HBCx-34 tumor (30 mg/kg once daily) is 1/10. Besides, the tumor stabilization entry in the test with HBCx-34 tumor (30 mg/kg once daily) and in the test with HBCx-22 tumor (30 mg/kg once daily) was “tumor stabilization for all mice” in each case. Further, the “partial tumor regression (mice)” value in the test with HBCx-34 tumor (100 mg/kg once daily) is recorded as 8/10; in the test on HBCx-34 tumor (setting [3]) it was 8/10; with HBCx-22 tumor (100 mg/kg once daily) it was 3/10; with HBCx-22 tumor (setting [3]) it was 6/10. In addition, the “TGI (%) D42” value in the test on HBCx-22 tumor (30 mg/kg QD p.o.) stood at 58.6%; with HBCx-22 tumor (100 mg/kg BID p.o. (200 mg/kg/day)) it was 110.4%; with HBCx-22 tumor (100 mg/kg QD p.o.), 97.3%. The “partial regressions (mice)” value with HBCx-22 tumor (30 mg/kg once daily) is 1/10.

For the origin of these results see patent publication US20260216174A1, “TREATMENT OF ER+ BREAST CANCER COMPRISING HOMOLOGOUS RECOMBINATION DEFICIENCY USING PARG INHIBITOR” (IDEAYA BIOSCIENCES, INC., priority 2023, published 2026).
